Source: the supplement of paper PMC11061612

Tests used:
[1] = system: HPAF-II (Pancreatic Carcinoma); experiment: Bliss excess, mean over the matrix (fraction); higher = more synergy
Procedure, shortened: (§1)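 After 24 hours at 37°C and 5% CO2 in 1536-well plates, cells in DMEM/F12 or RPMI plus 10% FBS received two-drug dose matrices for 72 hours. Viability came from CellTiter-Glo 2.0 luminescence and was scaled as inhibition, anchored at 0 by vehicle wells and at 1 by blank wells. Combination Emax is taken as the second-highest inhibition in the matrix, and Bliss excess as the observed combination effect less EA + EB − EA·EB, with EA and EB the single-agent effects.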

[2] = system: BHT-101 (Thyroid Gland Carcinoma); experiment: combination Emax (second highest fraction inhibited in the dose matrix, 72 h); higher = more inhibition; extreme values may be limits of the assay
Procedure, shortened: as §1

[3] = system: DBTRG-05MG (Glioblastoma); experiment: as above
Procedure, shortened: as §1

[4] = system: HPAF-II (Pancreatic Carcinoma); experiment: as above
Procedure, shortened: as §1

[5] = system: KP-4 (Pancreatic Carcinoma); experiment: as above
Procedure, shortened: as §1

[6] = system: MM1S (Plasma Cell Myeloma); experiment: as above
Procedure, shortened: as §1

[7] = system: MOLT-13 (T-Lymphoblastic Leukemia); experiment: as above
Procedure, shortened: as §1

[8] = system: NAMALWA (Burkitt's Lymphoma); experiment: as above
Procedure, shortened: as §1

NB1 (Neuroblastoma) = experiment: as above
Procedure, shortened: as §1

[9] = system: OVCAR-3 (Ovarian Carcinoma); experiment: as above
Procedure, shortened: as §1

[10] = system: PL4 (Pancreatic Carcinoma); experiment: as above
Procedure, shortened: as §1

[11] = system: SNU-423 (Hepatocellular Carcinoma); experiment: as above
Procedure, shortened: as §1

T47D (Breast Carcinoma) = experiment: as above
Procedure, shortened: as §1

[12] = system: T84 (Colorectal Carcinoma); experiment: as above
Procedure, shortened: as §1

UACC-257 (Melanoma) = experiment: as above
Procedure, shortened: as §1

WM35 (Melanoma) = experiment: as above
Procedure, shortened: as §1
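Wherever Bliss excess, mean over the matrix is given: after 72 h of two-drug dosing.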

| Structure (SMILES) | Bliss excess [1] | combination Emax [2] | combination Emax [3] | combination Emax [4] | combination Emax [5] | combination Emax [6] | combination Emax [7] | combination Emax [8] | combination Emax (NB1 (Neuroblastoma)) | combination Emax [9] | combination Emax [10] | combination Emax [11] | combination Emax (T47D (Breast Carcinoma)) | combination Emax [12] | combination Emax (UACC-257 (Melanoma)) | combination Emax (WM35 (Melanoma)) |
| --- | --- | --- | --- | --- | --- | --- | --- | --- | --- | --- | --- | --- | --- | --- | --- | --- |
| CN(C)CCCOc1ccc(-c2ccc3ncc4c(c3c2)n(C2CCOCC2)c(=O)n4C)cn1 [AZD0156] + O=C(c1cc(Cc2n[nH]c(=O)c3ccccc23)ccc1F)N1CCN(C(=O)C2CC2)CC1 [Olaparib] (first compound max 3 µM, partner max 3 µM) | -0.0048 | 0.362 | 0.152 | 0.25 | 0.287 | 0.881 | 0.397 | 0.487 | 0.357 | 0.227 | 0.34 | 0.293 | 0.366 | 0.353 | 0.21 | 0.201 |
| C=CCn1c(=O)c2cnc(Nc3ccc(N4CCN(C)CC4)cc3)nc2n1-c1cccc(C(C)(C)O)n1 [AZD1775] + C1CN(CCC1(C(=O)N[C@@H](CCO)C2=CC=C(C=C2)Cl)N)C3=NC=NC4=C3C=CN4 [Capivasertib] (first compound max 3 µM, partner max 3 µM) | -0.096 | 0.631 | 0.474 | 0.605 | 0.787 | 1 | 0.973 | 0.981 | 0.69 | 0.695 | 0.737 | 0.659 | 0.555 | 0.785 | 0.455 | 0.681 |
| COc1nnc2ccc(N3CCC(c4ccc(OCCN5CCN(C)C(=O)[C@H]5C)cc4)CC3)nn12 [AZD5153] + C=CCn1c(=O)c2cnc(Nc3ccc(N4CCN(C)CC4)cc3)nc2n1-c1cccc(C(C)(C)O)n1 [AZD1775] (first compound max 1 µM, partner max 1 µM) | -0.0147 | 0.737 | 0.369 | 0.449 | 0.684 | 0.734 | 1 | 0.969 | 0.842 | 0.852 | 0.662 | 0.462 | 0.505 | 0.349 | 0.359 | 0.467 |
| COc1nnc2ccc(N3CCC(c4ccc(OCCN5CCN(C)C(=O)[C@H]5C)cc4)CC3)nn12 [AZD5153] + CC1(C)CCC(CN2CCN(c3ccc(C(=O)NS(=O)(=O)c4ccc(NCC5CCOCC5)c([N+](=O)[O-])c4)c(Oc4cnc5[nH]ccc5c4)c3)CC2)=C(c2ccc(Cl)cc2)C1 [Venetoclax] (first compound max 1 µM, 7x7, partner max 1 µM) | -0.0057 | 0.718 | 0.252 | 0.365 | 0.526 | 0.611 | 0.987 | 0.761 | 0.232 | 0.522 | 0.572 | 0.41 | 0.483 | 0.219 | 0.305 | 0.556 |
| COc1nnc2ccc(N3CCC(c4ccc(OCCN5CCN(C)C(=O)[C@H]5C)cc4)CC3)nn12 [AZD5153] + CCN(CCO)CCCOc1ccc2c(Nc3cc(CC(=O)Nc4cccc(F)c4)[nH]n3)ncnc2c1 [AZD2811] (first compound max 1 µM, 7x7, partner max 1 µM) | 0.0072 | 0.7 | 0.333 | 0.379 | 0.67 | 0.635 | 1 | 0.748 | 0.556 | 0.602 | 0.53 | 0.507 | 0.494 | 0.202 | 0.372 | 0.534 |
| COc1nnc2ccc(N3CCC(c4ccc(OCCN5CCN(C)C(=O)[C@H]5C)cc4)CC3)nn12 [AZD5153] + C[C@@H]1COCCN1C2=NC(=NC(=C2)C3(CC3)[S@](=N)(=O)C)C4=C5C=CNC5=NC=C4 [AZD6738] (first compound max 1 µM, 7x7, partner max 10 µM) | 0.0002 | 0.816 | 0.307 | 0.512 | 0.77 | 0.778 | 1 | 0.914 | 0.744 | 0.821 | 0.756 | 0.517 | 0.637 | 0.583 | 0.394 | 0.731 |
| COc1nnc2ccc(N3CCC(c4ccc(OCCN5CCN(C)C(=O)[C@H]5C)cc4)CC3)nn12 [AZD5153] + Cc1c2c(nn1C)CSCc1cc(n(C)n1)CSc1cc(c3ccccc3c1)OCCCc1c(C(=O)O)n(C)c3c-2c(Cl)ccc13 [AZD5991] (first compound max 1 µM, 7x7, partner max 1 µM) | -0.0124 | 0.84 | 0.205 | 0.35 | 0.76 | 1 | 1 | 0.966 | 0.52 | 0.632 | 0.63 | 0.431 | 0.571 | 0.23 | 0.501 | 0.798 |
| COc1nnc2ccc(N3CCC(c4ccc(OCCN5CCN(C)C(=O)[C@H]5C)cc4)CC3)nn12 [AZD5153] + Cn1cnc2c(F)c(Nc3ccc(Br)cc3Cl)c(C(=O)NOCCO)cc21 [Selumetinib] (first compound max 1 µM, 7x7, partner max 10 µM) | 0.0634 | 0.966 | 0.399 | 0.868 | 0.597 | 0.947 | 0.979 | 0.771 | 0.445 | 0.54 | 0.851 | 0.424 | 0.549 | 0.483 | 0.825 | 0.968 |
| NC1(C(=O)N[C@@H](CCO)c2ccc(Cl)cc2)CCN(c2ncnc3[nH]ccc23)CC1 [Capivasertib] + CC(=O)c1c(C)c2cnc(Nc3ccc(N4CCNCC4)cn3)nc2n(C2CCCC2)c1=O [Palbociclib] (first compound max 10 µM, 7x7, partner max 10 µM) | 0.0187 | 0.675 | 0.23 | 0.197 | 0.595 | 0.981 | 0.732 | 0.701 | 0.697 | 0.379 | 0.478 | 0.458 | 0.434 | 0.267 | 0.276 | 0.263 |
| CC1(C)CCC(CN2CCN(c3ccc(C(=O)NS(=O)(=O)c4ccc(NCC5CCOCC5)c([N+](=O)[O-])c4)c(Oc4cnc5[nH]ccc5c4)c3)CC2)=C(c2ccc(Cl)cc2)C1 [Venetoclax] + CN(C)CCCOc1ccc(-c2ccc3ncc4c(c3c2)n(C2CCOCC2)c(=O)n4C)cn1 [AZD0156] (first compound max 1 µM, 7x7, partner max 1 µM) |  | 0.246 | 0.174 |  | 0.21 | 0.221 | 0.718 | 0.613 | 0.145 | 0.119 | 0.248 | 0.271 | 0.344 | 0.19 | 0.177 | 0.135 |
| CC1(C)CCC(CN2CCN(c3ccc(C(=O)NS(=O)(=O)c4ccc(NCC5CCOCC5)c([N+](=O)[O-])c4)c(Oc4cnc5[nH]ccc5c4)c3)CC2)=C(c2ccc(Cl)cc2)C1 [Venetoclax] + COc1cc(Nc2ncc3c(n2)-c2ccc(Cl)cc2C(c2c(F)cccc2OC)=NC3)ccc1C(=O)O [Alisertib] (first compound max 1 µM, 7x7, partner max 10 µM) |  | 0.672 | 0.279 |  | 0.44 | 0.423 | 0.896 | 0.661 | 0.561 | 0.394 | 0.448 | 0.361 | 0.326 | 0.315 | 0.191 | 0.152 |
| CC1(C)CCC(CN2CCN(c3ccc(C(=O)NS(=O)(=O)c4ccc(NCC5CCOCC5)c([N+](=O)[O-])c4)c(Oc4cnc5[nH]ccc5c4)c3)CC2)=C(c2ccc(Cl)cc2)C1 [Venetoclax] + C[C@@H]1COCCN1C2=NC(=NC(=C2)C3(CC3)[S@](=N)(=O)C)C4=C5C=CNC5=NC=C4 [AZD6738] (first compound max 1 µM, 7x7, partner max 10 µM) |  | 0.642 | 0.288 |  | 0.418 | 0.527 | 1 | 0.889 | 0.789 | 0.48 | 0.709 | 0.441 | 0.35 | 0.702 | 0.169 | 0.269 |
| CC1(C)CCC(CN2CCN(c3ccc(C(=O)NS(=O)(=O)c4ccc(NCC5CCOCC5)c([N+](=O)[O-])c4)c(Oc4cnc5[nH]ccc5c4)c3)CC2)=C(c2ccc(Cl)cc2)C1 [Venetoclax] + C[C@@H](Nc1cc(F)cc(F)c1)c1cc(C(=O)N(C)C)cc2c(=O)cc(N3CCOCC3)oc12 [AZD8186] (first compound max 1 µM, 7x7, partner max 3 µM) |  | 0.272 | 0.12 |  | 0.421 | 0.288 | 0.431 | 0.428 | 0.145 | 0.241 | 0.243 | 0.383 | 0.272 | 0.101 | 0.121 | 0.0866 |
| CC1(C)CCC(CN2CCN(c3ccc(C(=O)NS(=O)(=O)c4ccc(NCC5CCOCC5)c([N+](=O)[O-])c4)c(Oc4cnc5[nH]ccc5c4)c3)CC2)=C(c2ccc(Cl)cc2)C1 [Venetoclax] + Cc1cc2ncnn2cc1Nc1ncc2c(n1)n(C1CCOCC1)c(=O)n2C [AZD7648] (first compound max 1 µM, 7x7, partner max 10 µM) |  | 0.221 | 0.209 |  | 0.126 | 0.229 | 0.785 | 0.459 | 0.561 | 0.196 | 0.357 | 0.292 | 0.32 | 0.0827 | 0.159 | 0.204 |
| CC1(C)CCC(CN2CCN(c3ccc(C(=O)NS(=O)(=O)c4ccc(NCC5CCOCC5)c([N+](=O)[O-])c4)c(Oc4cnc5[nH]ccc5c4)c3)CC2)=C(c2ccc(Cl)cc2)C1 [Venetoclax] + Cn1cnc2c(F)c(Nc3ccc(Br)cc3Cl)c(C(=O)NOCCO)cc21 [Selumetinib] (first compound max 1 µM, 7x7, partner max 3 µM) |  | 0.686 | 0.285 |  | 0.131 | 0.306 | 0.804 | 0.286 | 0.0633 | 0.126 | 0.443 | 0.192 | 0.0758 | 0.16 | 0.621 | 0.757 |
